Five molecules from patent US4001419A, “1'-Substituted xanthene-9-spiro-4'-piperidine derivatives” (Imperial Chemical Industries Limited, priority 1974, dated 1977) can be followed below.

For orientation: LD50 means the dose expected to kill half of the subjects tested.

The first data set is described as follows: LD50 (acute toxicity). Further details: species or system mice. Conditions: mouse, in vivo; intravenous; read-out: LD50 when dosed intravenously. The protocol: All the compounds exemplified in this specification are active on at least one of these standard tests at a dose of equal to or less than 100 mg./kg. of the free base. […] Other LD50 values for compounds of the invention when dosed intravenously are as follows: […]
With `CC(=O)Oc1cccc2c1Oc1cc(Cl)ccc1C21CCN(C)CC1` [4-OAc H 6-Cl H], the LD50 was greater than 35 mg/kg. In the case of `COc1ccc2c(c1)Oc1c(OC(C)=O)cccc1C21CCN(C)CC1` [4-OAc H 6-OMe H], the LD50 is greater than 20 mg/kg.

`CSc1ccc2c(c1)Oc1c(OC(C)=O)cccc1C21CCN(C)CC1` [4-OAc H 6-SMe H]: the LD50 is greater than 40 mg/kg. Take `CN1CCC2(CC1)c1cccc(O)c1Oc1cccc(F)c12` [4-OH H 8-F H]: the LD50 is greater than 20 mg/kg. Turning to `CN1CCC2(CC1)c1ccc(Cl)cc1Oc1c(O)cccc12` [6-chloro-4-hydroxy-1'-methylxanthene-9-spiro-4'-piperidine], the 50% lethal dose (LD50) is greater than 25 mg/kg.

Staying with this data set, now noted: mouse, in vivo; mice, oral; read-out: oral LD50.
Consider `CN1CCC2(CC1)c1ccc(Cl)cc1Oc1c(O)cccc12` [6-chloro-4-hydroxy-1'-methylxanthene-9-spiro-4'-piperidine], for which the median lethal dose (LD50) was greater than 200 mg/kg.
